Reference: patent US11566007B2, “Ras inhibitors” (Revolution Medicines, Inc., priority 2019, dated 2023)
Where “and” joins values, the source holds several entries; their conditions need not be identical. Identical values can stand only once.

What was measured:
[1] = target: NRAS G12C (Homo sapiens (Human), UniProt P01111+P62937, G12C); experiment: Ras-Raf (BRAF RBD) disruption / FRET / MOA assay, NRAS G12C; type: biochemical; conditions: read-out: IC50* NRAS G12C FRET data
Protocol: (§1) The purpose of this biochemical assay is to measure the ability of test compounds to facilitate ternary complex formation between a nucleotide-loaded Ras isoform and cyclophilin A; the resulting ternary complex disrupts binding to a BRAF^RBD construct, inhibiting Ras signaling through a RAF effector.
(§2) Compound is present in plate wells as a 10-point 3-fold dilution series starting at a final concentration of 30 μM. After incubation at 25° C. for 3 hours, a mixture of Anti-His Eu-W1024 and anti-GST allophycocyanin is then added to assay sample wells at final concentrations of 10 nM and 50 nM, respectively, and the reaction incubated for an additional 1.5 hours. […] Compounds that facilitate disruption of a Ras:RAF complex are identified as those eliciting a decrease in the TR-FRET ratio relative to DMSO control wells.
This protocol may also be executed substituting other Ras proteins or nucleotides. […]

[2] = target: K-Ras G13C (Homo sapiens (Human), UniProt P01116+P62937, G13C); experiment: Ras-Raf (BRAF RBD) disruption / FRET / MOA assay, KRAS G13C; type: biochemical; conditions: KRAS G13C; Ras-Raf disruption/FRET/MOA assay; read-out: IC50* KRAS G13C FRET data
Sequence of K-Ras G13C (P01116-2 other isoform, or with tags, fused parts or gaps G13C): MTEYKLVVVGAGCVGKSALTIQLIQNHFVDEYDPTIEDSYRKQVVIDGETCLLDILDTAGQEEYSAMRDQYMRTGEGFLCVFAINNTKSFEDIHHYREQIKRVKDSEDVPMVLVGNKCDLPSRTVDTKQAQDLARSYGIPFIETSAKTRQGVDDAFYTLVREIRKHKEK
Sequence of K-Ras G13C (P62937 whole entry): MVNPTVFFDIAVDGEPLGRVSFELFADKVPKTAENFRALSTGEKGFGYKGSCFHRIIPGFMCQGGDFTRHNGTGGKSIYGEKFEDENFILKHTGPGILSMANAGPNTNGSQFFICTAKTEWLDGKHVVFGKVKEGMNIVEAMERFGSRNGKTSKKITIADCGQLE
Protocol: as §1, §2
(§3) This protocol may also be executed substituting other Ras proteins or nucleotides.
(§4) The purpose of this biochemical assay was to measure the ability of test compounds to facilitate ternary complex formation between a nucleotide-loaded K-Ras isoform and Cyclophilin A; the resulting ternary complex disrupts binding to a BRAF^RBD construct, inhibiting K-Ras signaling through a RAF effector. Data is reported as IC50 values.
as §2, with “Compound was” for “Compound is”, “allophycocyanin was” for “allophycocyanin is”, “a K-Ras:RAF” for “a Ras:RAF”, “complex were” for “complex are”

[3] = tested on: NCI-H358 cells (K-Ras G12C); experiment: Potency assay: pERK in NCI-H358 cells; type: cell-based, human; conditions: Homo sapiens, NCI-H358; H358 KRAS G12C; read-out: pERK EC50
Summary of the method: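 Compounds are dosed as ten 3-fold dilutions from a 10 mM DMSO stock, in duplicate, and left on cells for 4 h at 37 °C, 5% CO2. Phospho-ERK1/2 is then quantified by AlphaLISA SureFire Ultra or In-Cell Western, and IC50 is derived from a 4-parameter sigmoid against log concentration.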

[4] = target: K-Ras G12C (Homo sapiens (Human), UniProt P01116+P62937, G12C); experiment: Ras-Raf (BRAF RBD) disruption / FRET / MOA assay, KRAS G12C; type: biochemical; conditions: KRAS G12C; Ras-Raf disruption/FRET/MOA assay; read-out: IC50* KRAS G12C FRET data
Sequence of K-Ras G12C (P01116-2 other isoform, or with tags, fused parts or gaps G12C): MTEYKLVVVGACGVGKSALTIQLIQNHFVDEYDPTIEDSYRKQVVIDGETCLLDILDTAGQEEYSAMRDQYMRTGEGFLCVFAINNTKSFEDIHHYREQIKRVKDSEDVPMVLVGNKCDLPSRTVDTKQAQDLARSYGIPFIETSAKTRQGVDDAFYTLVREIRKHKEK
Sequence of K-Ras G12C (P62937 whole entry): as the sequence (P62937 whole entry) above
Protocol: as §1, §2, §3, §4
as §2, with “Compound was” for “Compound is”, “allophycocyanin was” for “allophycocyanin is”, “a K-Ras:RAF” for “a Ras:RAF”, “complex were” for “complex are”

[5] = target: KRAS WT (Homo sapiens (Human), UniProt P01116+P62937); experiment: Ras-Raf (BRAF RBD) disruption / FRET / MOA assay, KRAS WT; type: biochemical; conditions: read-out: IC50* KRAS WT FRET data
Sequence of KRAS WT (P01116-2 other isoform, or with tags, fused parts or gaps): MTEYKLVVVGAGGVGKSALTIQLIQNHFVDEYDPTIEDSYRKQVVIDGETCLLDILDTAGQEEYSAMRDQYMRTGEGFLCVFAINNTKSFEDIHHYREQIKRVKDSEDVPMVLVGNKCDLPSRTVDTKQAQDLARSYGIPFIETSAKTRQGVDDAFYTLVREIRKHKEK
Sequence of KRAS WT (P62937 whole entry): as the sequence (P62937 whole entry) above
Protocol: as §1, §2, §3, §4
as §2, with “Compound was” for “Compound is”, “allophycocyanin was” for “allophycocyanin is”, “a K-Ras:RAF” for “a Ras:RAF”, “complex were” for “complex are”

[6] = target: KRAS G12S (Homo sapiens (Human), UniProt P01116+P62937, G12S); experiment: Ras-Raf (BRAF RBD) disruption / FRET / MOA assay, KRAS G12S; type: biochemical; conditions: Ras-Raf disruption/FRET/MOA assay; class symbols; read-out: KRAS G12S FRET data IC50
Sequence of KRAS G12S (P01116-2 other isoform, or with tags, fused parts or gaps G12S): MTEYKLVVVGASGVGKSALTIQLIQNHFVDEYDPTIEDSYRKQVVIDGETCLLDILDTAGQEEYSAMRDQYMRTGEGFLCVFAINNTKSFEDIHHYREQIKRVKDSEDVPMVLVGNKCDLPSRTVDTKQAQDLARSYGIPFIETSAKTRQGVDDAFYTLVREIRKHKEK
Sequence of KRAS G12S (P62937 whole entry): as the sequence (P62937 whole entry) above
Summary of the method: (§5)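 Ternary complex formation (Ras–compound–cyclophilin A) displacing BRAF RBD, monitored by TR-FRET. Three hours at 25° C with compound (top 30 μM final), then 1.5 h with the labelled antibodies. Lower ratio than DMSO indicates disruption; IC50 reported.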

[7] = target: KRAS G12D (Homo sapiens (Human), UniProt P01116+P62937, G12D); experiment: Ras-Raf (BRAF RBD) disruption / FRET / MOA assay, KRAS G12D; type: biochemical; conditions: Ras-Raf disruption/FRET/MOA assay; class symbols; read-out: KRAS G12D FRET data IC50
Sequence of KRAS G12D (P01116-2 other isoform, or with tags, fused parts or gaps G12D): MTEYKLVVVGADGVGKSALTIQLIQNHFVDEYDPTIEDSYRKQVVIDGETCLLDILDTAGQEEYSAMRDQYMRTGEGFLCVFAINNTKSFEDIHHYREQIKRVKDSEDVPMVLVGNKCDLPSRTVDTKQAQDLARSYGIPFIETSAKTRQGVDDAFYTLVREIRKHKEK
Sequence of KRAS G12D (P62937 whole entry): as the sequence (P62937 whole entry) above
Summary of the method: as §5

[8] = target: KRAS G13D (Homo sapiens (Human), UniProt P01116+P62937, G13D); experiment: Ras-Raf (BRAF RBD) disruption / FRET / MOA assay, KRAS G13D; type: biochemical; conditions: read-out: IC50* KRAS G13D FRET data
Sequence of KRAS G13D (P01116-2 other isoform, or with tags, fused parts or gaps G13D): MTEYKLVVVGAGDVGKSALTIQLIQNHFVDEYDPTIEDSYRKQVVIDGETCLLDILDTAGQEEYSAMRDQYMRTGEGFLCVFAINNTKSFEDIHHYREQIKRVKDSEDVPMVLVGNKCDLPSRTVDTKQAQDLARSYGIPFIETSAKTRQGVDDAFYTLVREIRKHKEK
Sequence of KRAS G13D (P62937 whole entry): as the sequence (P62937 whole entry) above
Protocol: as §1, §2, §3, §4
as §2, with “Compound was” for “Compound is”, “allophycocyanin was” for “allophycocyanin is”, “a K-Ras:RAF” for “a Ras:RAF”, “complex were” for “complex are”

[9] = target: KRAS G12V (Homo sapiens (Human), UniProt P01116+P62937, G12V); experiment: Ras-Raf (BRAF RBD) disruption / FRET / MOA assay, KRAS G12V; type: biochemical; conditions: read-out: IC50* KRAS G12V FRET data
Sequence of KRAS G12V (P01116-2 other isoform, or with tags, fused parts or gaps G12V): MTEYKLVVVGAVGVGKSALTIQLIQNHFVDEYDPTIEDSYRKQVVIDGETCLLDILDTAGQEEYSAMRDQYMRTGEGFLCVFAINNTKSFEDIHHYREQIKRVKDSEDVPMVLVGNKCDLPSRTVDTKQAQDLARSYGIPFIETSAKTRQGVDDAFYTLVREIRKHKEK
Sequence of KRAS G12V (P62937 whole entry): as the sequence (P62937 whole entry) above
Protocol: as §1, §2, §3, §4
as §2, with “Compound was” for “Compound is”, “allophycocyanin was” for “allophycocyanin is”, “a K-Ras:RAF” for “a Ras:RAF”, “complex were” for “complex are”

Sequence of NRAS G12C (P01111 whole entry G12C, canonical isoform): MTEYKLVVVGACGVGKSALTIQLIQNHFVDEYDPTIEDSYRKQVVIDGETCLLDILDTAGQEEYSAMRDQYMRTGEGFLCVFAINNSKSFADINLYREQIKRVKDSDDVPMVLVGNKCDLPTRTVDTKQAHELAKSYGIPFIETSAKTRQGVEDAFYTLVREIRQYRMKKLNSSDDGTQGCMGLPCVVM
Sequence of NRAS G12C (P62937 whole entry, canonical isoform): as the sequence (P62937 whole entry) above

SMILES: CCn1c(-c2cccnc2[C@H](C)OC)c2c3cc(ccc31)-c1cc(O)cc(c1)C[C@H](NC(=O)[C@H](C(C)C)N(C)C(=O)C1CCN(C(=O)/C=C/CN(C)C)CC1)C(=O)N1CCC[C@H](N1)C(=O)OCC(C)(C)C2 (atropisomer, axis not shown) [Example A261]
- IC50 [1]: 10 to 100 nM and 100 to 1000 nM
- IC50 [2]: 10 to 100 nM and 100 to 1000 nM
- EC50 [3]: < 5000 nM
- IC50 [4]: 10 to 100 nM and 100 to 1000 nM
- IC50 [5]: 1000 to 10000 nM and 10 to 100 nM
- IC50 [6]: 100 to 1000 nM
- IC50 [7]: 1000 to 10000 nM and 100 to 1000 nM
- IC50 [8]: 100 to 1000 nM and 10 to 100 nM
- IC50 [9]: 100 to 1000 nM and 1000 to 10000 nM

SMILES: C=CC(=O)N1CC[C@H](C(=O)N(C)[C@H](C(=O)N[C@H]2Cc3nc(cs3)-c3ccc4c(c3)c(c(-c3cccnc3[C@H](C)OC)n4CC)CC(C)(C)COC(=O)[C@@H]3CCCN(N3)C2=O)C(C)C)C1 (atropisomer, axis not shown) [Example A279]
- IC50 [1]: 1 µM to 10 µM and > 10 µM (2×)
- IC50 [2]: > 10 µM (2×) and 1 µM to 10 µM
- EC50 [3]: < 5000 nM
- IC50 [4]: 1 µM to 10 µM and > 10 µM (2×)
- IC50 [5]: > 10000 nM
- IC50 [6]: > 10000 nM
- IC50 [7]: > 10000 nM
- IC50 [8]: > 10000 nM
- IC50 [9]: > 10000 nM

SMILES: C=CS(=O)(=O)N1CC[C@H](C(=O)N(C)[C@H](C(=O)N[C@H]2Cc3nc(cs3)-c3ccc4c(c3)c(c(-c3cccnc3[C@H](C)OC)n4CC)CC(C)(C)COC(=O)[C@@H]3CCCN(N3)C2=O)C(C)C)C1 (atropisomer, axis not shown) [Example A283]
- IC50 [1]: 100 to 1000 nM and 1000 to 10000 nM and > 10000 nM
- IC50 [2]: 10 nM to 100 nM and 1 µM to 10 µM (2×)
- EC50 [3]: < 5000 nM
- IC50 [4]: 10 nM to 100 nM and 1 µM to 10 µM (2×)
- IC50 [5]: 1 µM to 10 µM and > 10 µM (2×)
- IC50 [6]: 1 µM to 10 µM and > 10 µM (2×)
- IC50 [7]: > 10000 nM
- IC50 [8]: > 10000 nM
- IC50 [9]: 1 µM to 10 µM and > 10 µM (2×)

SMILES: C=CC(=O)N1CC2(CCN([C@H](C(=O)N[C@H]3Cc4cc(O)cc(c4)-c4ccc5c(c4)c(c(-c4cccnc4[C@H](C)OC)n5CC)CC(C)(C)COC(=O)[C@@H]4CCCN(N4)C3=O)C(C)C)C2=O)C1 (atropisomer, axis not shown) [Example A294]
- IC50 [1]: < 10 nM
- IC50 [2]: < 10 nM
- EC50 [3]: < 5000 nM
- IC50 [4]: < 10 nM
- IC50 [5]: 10 to 100 nM
- IC50 [6]: 10 to 100 nM
- IC50 [7]: 100 to 1000 nM
- IC50 [8]: 10 to 100 nM
- IC50 [9]: 100 to 1000 nM

SMILES: CCn1c(-c2cccnc2[C@H](C)OC)c2c3cc(ccc31)-c1cccc(c1)C[C@H](NC(=O)[C@H](C(C)C)N(C)C(=O)[C@H]1CCN(C(=O)C#CC(C)(C)N3CCC(F)(F)C3)C1)C(=O)N1CCC[C@H](N1)C(=O)OCC(C)(C)C2 (atropisomer, axis not shown) [Example A325]
- IC50 [1]: 1000 to 10000 nM
- IC50 [2]: 1000 to 10000 nM
- EC50 [3]: < 5000 nM
- IC50 [4]: 1000 to 10000 nM
- IC50 [5]: > 10000 nM
- IC50 [6]: 1000 to 10000 nM
- IC50 [7]: > 10000 nM
- IC50 [8]: > 10000 nM
- IC50 [9]: 1000 to 10000 nM

SMILES: CCn1c(-c2cccnc2[C@H](C)OC)c2c3cc(ccc31)-c1cc(cc(C(F)F)c1)C[C@H](NC(=O)[C@H](C(C)C)N(C)C(=O)[C@H]1CCN(C(=O)C#CC(C)(C)N3CCC3)C1)C(=O)N1CCC[C@H](N1)C(=O)OCC(C)(C)C2 (atropisomer, axis not shown) [Example A466]
- IC50 [1]: 10 to 100 nM
- IC50 [2]: 100 to 1000 nM
- EC50 [3]: < 5000 nM
- IC50 [4]: 10 to 100 nM
- IC50 [5]: 1000 to 10000 nM
- IC50 [6]: 1000 to 10000 nM
- IC50 [7]: > 10000 nM
- IC50 [8]: 1000 to 10000 nM
- IC50 [9]: 1000 to 10000 nM

SMILES: CCn1c(-c2cccnc2COC)c2c3cc(ccc31)-c1cc(O)cc(c1)C[C@H](NC(=O)[C@H](C(C)C)N(C)C(=O)[C@H]1CCN(C(=O)/C=C/CN(C)C)C1)C(=O)N1CCC[C@H](N1)C(=O)OCC(C)(C)C2 [Example A054]
- IC50 [1]: 10 to 100 nM
- IC50 [2]: 100 to 1000 nM
- IC50 [4]: 10 to 100 nM
- IC50 [5]: 100 to 1000 nM
- IC50 [6]: 100 to 1000 nM
- IC50 [7]: 100 to 1000 nM
- IC50 [8]: 100 to 1000 nM
- IC50 [9]: 100 to 1000 nM
